Data taken from paper PMC8775380, “A Complexed Crystal Structure of a Single-Stranded DNA-Binding Protein with Quercetin and the Structural Basis of Flavonol Inhibition Specificity” (International Journal of Molecular Sciences, 2022).

What was measured:
[1] = target: T1, Pseudomonas aeruginosa single-stranded DNA-binding protein (PaSSB) (Pseudomonas aeruginosa, UniProt P40947); test: EMSA, inhibition of PaSSB binding to biotin-labeled dT35 ssDNA; format: biochemical; set-up: gene ssb; purified recombinant PaSSB
T1 sequence (P40947 2-165): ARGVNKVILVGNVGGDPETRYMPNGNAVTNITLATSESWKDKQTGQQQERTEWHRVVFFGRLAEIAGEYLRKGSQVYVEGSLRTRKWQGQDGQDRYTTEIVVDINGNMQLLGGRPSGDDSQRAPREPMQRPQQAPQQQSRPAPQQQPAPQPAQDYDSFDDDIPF

[2] = target: T1, Pseudomonas aeruginosa single-stranded DNA-binding protein (PaSSB); test: X-ray crystal structure of the complex, […] Å; set-up: gene ssb; recombinant PaSSB; amino acids 114–165 not observed in the structure
[3] = target: PaSSB (single-stranded DNA-binding protein) (Pseudomonas aeruginosa, UniProt P40947 1-165); test: EMSA; no flavonol; protein concentration at 50% bound; EMSA: 40 mM Tris-HCl pH 7.5, 50 mM NaCl, 37 °C 60 min, DNA 30 fmol/uL, PaSSB 0-5 uM; 8% native PAGE in TBE; flavonols dissolved in 10% DMSO; conditions: protein: recombinant; chain copies: 4; label: biotin (3' in Results, 5' in Methods); single strand

## O=c1c(O)c(-c2cc(O)c(O)c(O)c2)oc2cc(O)cc(O)c12 [myricetin]
[1]
  IC50: 2800 ± 400 nM

## O=c1c(O)c(-c2ccc(O)c(O)c2)oc2cc(O)cc(O)c12 [quercetin]
[2]
  X-ray crystal structure of the complex, 2.32 Å: The electron density of quercetin was well-defined and indicated the presence of quercetin in the structure of PaSSB

## TTTTTTTTTTTTTTTTTTTTTTTTTTTTTTTTTTT (ssDNA) [dT35]
[3]
  apparent K (half saturation): 548 ± 36 nM
